These results are taken from patent publication US10463651B2, “3-(1H-pyrrolo[3,2-C]pyridin-2-YL)-1H-indazoles and therapeutic uses thereof” (Samumed, LLC, priority 2015, dated 2019).

What all share (format): cell-based
The test system of one experiment is IL-6 (THP-1 cells). As to the kind of experiment: IL-6 inhibition in LPS-stimulated THP-1 cells (HTRF). The following applies: Homo sapiens; for pEC50: IL6 by HTRF, THP-1 cells, 500 ng/mL LPS, 22 hours. Put shortly: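 THP-1 cells, pre-cultured 24 h in 1% FBS medium, treated with compound 2 h at 37 °C, then stimulated with 500 ng/mL LPS for 22 h. Secreted IL-6 measured by HTRF as the 665/620 nm ratio. Values normalized to DMSO; EC50 from four-parameter fit, duplicates.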

For a further experiment, the system named is SW480 colon cancer cells. As to the kind of experiment: Cell viability assay (CellTiter-Blue). The settings on record: Homo sapiens; for pEC50: 96 h, SW480 cell viability, four days, CellTiter-Blue; for inhibition at 10 µM: SW480, 96 h, read-out: percent inhibition at 10 μM. Put shortly: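 Fluorescence from resazurin reduced to resorufin by metabolically active cells was the read-out, taken after ~3 h with CellTiter-Blue.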

For experiment [1], the system named is primary human fibroblasts derived from IPF patients (LL29 cells) treated with TGF-β1. As to the kind of experiment: Inhibition of the fibrotic process (αSMA staining) in TGF-β1-treated fibroblasts. The following applies: Fibroblast, 96 h, % αSMA-positive LL29 cells, TGF-β1 20 ng/mL, 4 days. Put shortly:
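LL29 fibroblasts from IPF patients, 1,500 cells/well in F12 with 1% FBS, stimulated with TGF-β1; TGF-β1 plus DMSO wells as controls. Incubation 4 days, then SYTOX green 1 μM final for 30 min at room temperature. Fibrotic response read as αSMA staining.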

Experiment [2] has as its system Wnt activity (Sp5-Luc reporter, SW480 colon carcinoma cells). As to the kind of experiment: Screening assay for Wnt activity (Sp5-Luc reporter gene assay in SW480 cells). The following applies: Homo sapiens; for inhibition at 10 µM: SW480, read-out: percent inhibition at 10 μM; for pEC50: Sp5-Luc reporter, SW480 cells, incubated overnight. Put shortly: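 SW480 colon carcinoma cells stably carrying Sp5 promoter (eight TCF/LEF sites)-driven firefly luciferase, plated at 4,000 cells/well in 1% FBS medium and incubated overnight at 37° C. Luminescence normalised to DMSO-only cells; EC50 from four-parameter variable-slope nonlinear regression.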

In experiment [3] the test system is primary human mesenchymal stem cells (hMSCs). As to the kind of experiment: Induction of chondrogenesis in hMSCs (Rhodamine B / Nile Red nodule imaging). The settings on record: for EC50: concentration required to induce 50% levels of chondrogenesis vs TGF-β3 positive control, read-out: Conc (nM) of 50% TGF-β3 activity; for Emax: maximum activity relative to TGF-β3 (10 ng/mL) positive control, read-out: Max. Activity as % TGF-β3 activity. From the text:
Representative compounds were screened using primary human mesenchymal stem cells (hMSCs) to determine their ability to induce chondrogenesis (process by which cartilage is developed).
Primary human mesenchymal stem cells (hMSCs) were purchased from Lonza (Walkersville, Md.) and expanded in Mesenchymal Stem Cell Growth Media (Lonza). Cells between passage 3 and 6 were used for the experiments.
Area of nodules in each well was normalized to the average of 3 DMSO treated wells on the same plate using Excel (Microsoft Inc.). The normalized averages (fold change over DMSO) of 2 or 3 replicate wells for each compound concentration were calculated. Due to solubility limitations of some of the compounds, curve fitting was incomplete leading to inaccurate EC50 determinations.
Using TGF-β3 as a positive control, the concentration of representative compounds required to induce 50% levels of chondrogenesis is reported. In addition, the maximum activity of each compound and the respective dose that each compound reached maximum chondrogenesis activity is reported.

pEC50: −log10 of the molar value. A value given as a limit tells only on which side of the number the result lay.

For `CC(C)CC(=O)Nc1cncc(-c2ccc3[nH]nc(-c4cc5c(-c6ccncc6)nccc5[nH]4)c3c2)c1` [Compound 114, 3-Methyl-N-(5-(3-(4-(pyridin-4-yl)-1H-pyrrolo[3,2-c]pyridin-2-yl)-1H-indazol-5-yl)pyridin-3-yl)butanamide], the pEC50 in the experiment with IL-6 (THP-1 cells) is 5.99; in the experiment on SW480 colon cancer cells, under 5.00; in experiment [1], 5.65; in experiment [2] it was under 5.00. Also, the inhibition at 10 µM is 4.1% in the experiment with SW480 colon cancer cells and 39.7% in experiment [2]. For the same molecule, the EC50 in experiment [3] came out at 30 nM. In experiment [3], the Emax was 95%.

Turning to `Nc1cncc(-c2ccc3[nH]nc(-c4cc5c(-c6ccncc6)nccc5[nH]4)c3c2)c1` [Compound 115, 5-(3-(4-(Pyridin-4-yl)-1H-pyrrolo[3,2-c]pyridin-2-yl)-1H-indazol-5-yl)pyridin-3-amine], the inhibition at 10 µM in the experiment with IL-6 (THP-1 cells) (THP-1, read-out: percent inhibition at 10 M) came out at 29%. Further, the pEC50 was under 5.00 with IL-6 (THP-1 cells), 5.42 with SW480 colon cancer cells, 5.86 in experiment [1] and 6.18 in experiment [2]. For the same molecule, in experiment [3], the EC50 came out at 100 nM. In experiment [3], the Emax is 77%.

On to `O=C(Nc1cncc(-c2ccc3[nH]nc(-c4cc5c(-c6ccncc6)nccc5[nH]4)c3c2)c1)C1CCCC1` [Compound 134, N-(5-(3-(4-(Pyridin-4-yl)-1H-pyrrolo[3,2-c]pyridin-2-yl)-1H-indazol-5-yl)pyridin-3-yl)cyclopentanecarboxamide], for which the pEC50 in the experiment on IL-6 (THP-1 cells) is 5.01; in the experiment on SW480 colon cancer cells, under 5.00; in experiment [1], 5.61; in experiment [2] it was under 5.00. Besides, the inhibition at 10 µM with SW480 colon cancer cells turned out to be 4.2%; in experiment [2], 20.6%. Also, the EC50 in experiment [3] amounted to 30 nM. In experiment [3], the Emax stood at 114%.

Consider `CCC(=O)Nc1cncc(-c2ccc3[nH]nc(-c4cc5c(N6CCCCC6)nccc5[nH]4)c3c2)c1` [Compound 169, N-(5-(3-(4-(Piperidin-1-yl)-1H-pyrrolo[3,2-c]pyridin-2-yl)-1H-indazol-5-yl)pyridin-3-yl)propionamide], for which the pEC50 in the experiment on IL-6 (THP-1 cells) is 7.32; in the experiment with SW480 colon cancer cells, 6.53; in experiment [1] it was 6.83; in experiment [2], 6.35. In addition, the EC50 in experiment [3] was 10 nM. Moreover, the Emax in experiment [3] was 244%.

With `c1cncc(-c2ccc3[nH]nc(-c4cc5c(N6CCCCC6)nccc5[nH]4)c3c2)c1` [Compound 172, 3-(4-(Piperidin-1-yl)-1H-pyrrolo[3,2-c]pyridin-2-yl)-5-(pyridin-3-yl)-1H-indazole], the pEC50 is 6.72 in the experiment on IL-6 (THP-1 cells), 6.07 in the experiment with SW480 colon cancer cells, 5.98 in experiment [1] and 6.32 in experiment [2]. Further, the EC50 in experiment [3] is 10 nM. In addition, in experiment [3], the Emax was found to be 172%.

Regarding `CCNCc1cncc(-c2ccc3[nH]nc(-c4cc5c(N6CCCCC6)nccc5[nH]4)c3c2)c1` [Compound 174, N-((5-(3-(4-(Piperidin-1-yl)-1H-pyrrolo[3,2-c]pyridin-2-yl)-1H-indazol-5-yl)pyridin-3-yl)methyl)ethanamine], the pEC50 in the experiment with IL-6 (THP-1 cells) is 6.34; with SW480 colon cancer cells, 6.02; in experiment [1], 5.84; in experiment [2] it was 5.53. For the same molecule, the EC50 in experiment [3] is 900 nM. Also, the Emax in experiment [3] is 301%.

As for `CC(C)(C)C(=O)Nc1cncc(-c2ccc3[nH]nc(-c4cc5c(N6CCCCC6)nccc5[nH]4)c3c2)c1` [Compound 176, N-(5-(3-(4-(Piperidin-1-yl)-1H-pyrrolo[3,2-c]pyridin-2-yl)-1H-indazol-5-yl)pyridin-3-yl)pivalamide], the pEC50 in the experiment on IL-6 (THP-1 cells) is 6.46; with SW480 colon cancer cells it was 5.87; in experiment [1], 6.19; in experiment [2], 5.88. Also, the Emax in experiment [3] was found to be 35%.
